Where two headings read alike, the source gives them in different places.

One data set concerns the target recombinant human GALK1 (Homo sapiens, UniProt P51570). Briefly: hGALK1 biochemical activity assay (Kinase-Glo Plus, ATP depletion). In short, it runs like this:
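Turnover is measured as ATP depletion by Kinase-Glo Plus luminescence after a 1 h room-temperature reaction. Compounds span 11 concentrations, 57.4 μM–0.97 nM, in final 20 mM HEPES pH 8.0 with 5 mM MgCl2. The substrate solution held 35 μM ATP; the added solution held 5 nM human or mouse GALK1 and 100 μM galactose.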
(In general: In Kinase-Glo more light means more ATP remaining.)

A further data set deals with recombinant mouse GALK1 (Mus musculus, UniProt Q9R0N0). The experiment in a line: mGALK1 biochemical activity assay (Kinase-Glo Plus, ATP depletion). In outline:
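Recombinant GALK1 (5 nM) with 100 μM galactose; GALK1 turnover read as ATP depletion by Kinase-Glo Plus luminescence. Reaction ran 1 h at room temperature before detection reagent was added.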

The target in data set [1] is T1, hGALK1m (Homo sapiens, UniProt P51570, E253A/K252A).
T1 construct: made in house; host or cells: E. coli HMS174
T1 sequence (P51570 whole entry K252A/E253A): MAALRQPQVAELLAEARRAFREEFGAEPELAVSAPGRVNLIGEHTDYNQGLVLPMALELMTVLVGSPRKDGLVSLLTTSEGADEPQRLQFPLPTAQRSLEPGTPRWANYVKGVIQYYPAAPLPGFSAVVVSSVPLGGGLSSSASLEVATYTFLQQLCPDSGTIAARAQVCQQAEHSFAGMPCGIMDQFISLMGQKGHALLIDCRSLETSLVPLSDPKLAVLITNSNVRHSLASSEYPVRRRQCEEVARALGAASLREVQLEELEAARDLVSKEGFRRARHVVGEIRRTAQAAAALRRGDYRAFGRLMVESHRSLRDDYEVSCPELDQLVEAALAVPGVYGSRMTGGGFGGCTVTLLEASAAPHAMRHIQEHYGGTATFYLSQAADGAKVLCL
Briefly: in vitro hGALK1 activity assay of the structure-based optimisation (Example 12, Tables 17-20). The note with it: for fold improvement of potency (IC50) versus parent compound: increase in potency relative to the unsubstituted parent. In kind it is biochemical.

Data set [2] has as its system skin fibroblasts derived from GALT-deficient patients. Briefly: Gal-1-p accumulation assay in patient fibroblasts. In kind it is cell-based, human. The protocol:
Skin fibroblasts derived from GALT-deficient patients were maintained in galactose-free culture medium supplemented with 10% hexose-free fetal bovine serum (FBS). Before galactose challenge, inhibitors were added to the medium at designated concentrations and incubated at 37° C. for 4 hr. Then, galactose was added to reach 0.05% in the medium. After 4 hr of challenge, cells were collected and washed twice with PBS. Then, the cells were disrupted in 300 μL of ice-cold hypotonic buffer containing 25 mM Tris-HCl (pH 7.4), 25 mM NaCl, 0.5 mM EDTA, and protease inhibitor cocktail (Roche). The lysates were passed five times through a 30-gauge needle and centrifuged for 20 min at 16,000×g and 4° C. A small portion of supernatant was saved for protein concentration measurement. Gal-1-p level was measured using the alkaline phosphatase coupled method previously described. The gal-1-p concentration was normalized to protein concentration. The assay was analyzed using the paired t-test to determine the statistical difference between the compound treated cells and corresponding DMSO control. The two-sided p value less than 0.05 was considered statistically significant.
For measurement of cellular Gal-1P reduction, compounds at different concentrations were added to cultured patient fibroblast at 80% confluency. After incubating the compounds for 16 hours, 10 mM galactose was added to the culture. After another 4-hours, cells were washed with cold PBS buffer 3× and harvested for gal-1P measurement, according to previously published method. Liu et al., Bioorg. Med. Chem. Lett. 25(3): 721-727 (2015).
The in vitro hGALK1 activity assay was performed as previously described. Liu et al., Bioorg. Med. Chem. Lett. 25(3): 721-727 (2015). For the measurement of cellular Gal-1P reduction, compounds at different concentrations were added to cultured patient fibroblast at 80% confluency. After incubating the compounds for 16 hours, 10 mM galactose was added to the culture. […]

A short description of data set [3]: mouse liver microsome stability (MLM). Format: in vitro ADME. The note with it: GALK lead profile. For orientation: Liver microsomes are a subcellular fraction often used to study metabolism.
The nature of data set [4]: human liver microsome stability (HLM). In kind it is in vitro ADME. The note with it: GALK lead profile.
A short description of data set [5]: aqueous kinetic solubility.
Data set [6] in a line: rat microsomal stability (RLM). Conditions: for half-life: rat, rat liver microsomes.
Data set [7] deals with T1, hGALK1m. The experiment in a line: surface plasma resonance (SPR) binding. The note with it: SPR at 4° C. The protocol:
Further characterization of the two lead compounds thus far, Compound 1 and Compound 3, with surface plasma resonance (SPR), confirmed that these compounds bind to hGALK1m tightly. Their KDs were 23 nM and 12 nM respectively at 4° C. (FIGS. 4A and 3B). We attempted to co-crystalize these two compounds with hGALK1m, but only succeeded with Compound 1. […] Even with a fluorine substitution at C6 position, the benzoxazole ring of Compound 1 absolutely overlapped with that of Compound A (FIG. 4D). […] The decahydroquinazoline ring was opened in Compound 1, but the hydrogen bond between ketone group and Arg 105 remained intact, and Arg 105 moved closer to the ketone group in the crystal structure with Compound 1 (FIG. 4E). In addition, the amide's nitrogen atom formed a hydrogen bond with Tyr 109 (FIG. 4E), which could clarify why substituting the closed ring with opened amide structure improves the compound's activity. The isonicotinic acid moiety extended outside of the enzyme's active center and was solvent exposed (FIG. 4C).

The mark [8] stands for this setting: Tables 2-15, 35 μM ATP, 100 μM galactose, 1 h, bracketed figure after some values (e.g. −1.2) is undefined and not reported, read-out: hGALK IC50.
[9] abbreviates: recombinant human GALK1, Kinase-Glo Plus ATP depletion, read-out: hGALK.
[10] abbreviates: recombinant mouse GALK1, Kinase-Glo Plus ATP depletion, read-out: mGALK.
Setting [11] is: Tables 18-20 and text of Example 12.
The mark [12] stands for this setting: Tables 2-15, 35 μM ATP, 100 μM galactose, 1 h, bracketed figure after some values is undefined and not reported, read-out: mGALK IC50.
[13] abbreviates: Tables 18-19, read-out: Max Response (%).
Setting [14] is: PAMPA, ADME P: PAMPA permeability (class), Tables 17-19, class probably colour-coded, colour lost.
Where [15] appears, read: PAMPA, Perm. (1 × 10^−6 cm/sec).

Chain of recombinant human GALK1 (P51570 whole entry): as the sequence (P51570 whole entry K252A/E253A) above, with A252K, A253E counted along it
Chain of recombinant mouse GALK1 (Q9R0N0 whole entry): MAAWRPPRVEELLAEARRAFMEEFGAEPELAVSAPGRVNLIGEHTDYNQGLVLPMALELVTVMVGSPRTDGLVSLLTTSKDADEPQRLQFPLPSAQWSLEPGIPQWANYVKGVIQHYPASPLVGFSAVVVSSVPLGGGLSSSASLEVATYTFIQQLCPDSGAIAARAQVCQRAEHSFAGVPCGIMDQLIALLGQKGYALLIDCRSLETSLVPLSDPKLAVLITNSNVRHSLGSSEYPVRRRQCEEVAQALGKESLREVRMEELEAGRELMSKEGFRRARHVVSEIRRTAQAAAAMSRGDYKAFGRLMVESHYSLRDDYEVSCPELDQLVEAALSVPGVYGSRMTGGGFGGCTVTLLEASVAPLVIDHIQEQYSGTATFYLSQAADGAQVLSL

For the compound `CC1=C(C(=O)NCc2cnn(C)c2)C(c2ccc(C)cc2Cl)N=C(Nc2nc3ccc(F)c(N)c3o2)N1` (stereo not drawn) [Compound 126, 2-((7-amino-6-fluorobenzo[d]oxazol-2-yl)amino)-4-(2-chloro-4-methylphenyl)-6-methyl-N-((1-methyl-1H-pyrazol-4-yl)methyl)-1,4-dihydropyrimidine-5-carboxamide], the IC50 was found to be 50 nM on recombinant human GALK1 (setting [8]), 50 nM at recombinant human GALK1 (setting [9]), 690 nM on recombinant mouse GALK1 (setting [10]) and 14 nM against hGALK1m [1] (setting [11]). Further, the “effect on Gal-1P accumulation (FIG. 5A)” value in data set [2] (CG patient fibroblasts) is recorded as “inhibited Gal-1P accumulation”. The results for the “change of Gal-1P inhibition with concentration (FIG. 5B)” value in [2] (concentration increased from 0.5 μM to 1 μM) and in [2] (concentration increased from 1 μM to 3 μM) were “significantly greater inhibition of Gal-1P accumulation” and “did not increase significantly”, respectively. The compound also registered an MLM t in data set [3] of 13 min. For the same compound, the HLM t in data set [4] turned out to be 47 min. In “PAMPA permeability” (GALK lead profile, two values given), the PAMPA was 485 10^−6 cm/s. Also, in “PAMPA permeability” (PAMPA), the “Perm. (1 × 10^−6 cm/sec)” value was 459.1 1 × 10^−6 cm/sec. Moreover, in “PAMPA permeability” (PAMPA, GALK lead profile, two values given), the apparent permeability (Papp) (as a rule, a coefficient for how fast a substance crosses the barrier) was 390 ×10⁻⁶ cm/s. The “Sol.” value in data set [5] (aqueous kinetic solubility) stood at 1.27 µg/mL. In data set [6] (GALK lead profile), this compound showed an RLM t of 16 min. Also, the “Metab. Stabil. (m)” value in [6] (microsomal stability half-life) worked out at 17.1 m.
As for `CC1=C(C(=O)Nc2cc(C(=O)O)ccn2)C(c2ccccc2Cl)N=C(Nc2nc3ccc(F)cc3o2)N1` (racemic) [Compound 1, 2-(4-(2-chlorophenyl)-2-((6-fluorobenzo[d]oxazol-2-yl)amino)-6-methyl-1,4-dihydropyrimidine-5-carboxamido)isonicotinic acid], the IC50 at recombinant human GALK1 (setting [9]) stood at 680 nM; on recombinant mouse GALK1 (setting [12]), 4320 nM; at recombinant mouse GALK1 (setting [10]), 4320 nM; against hGALK1m [1] (setting [11]), 260 nM. Further, on hGALK1m [1] (setting [13]), the Emax was 100%. Moreover, the “fold improvement of potency (IC50) versus parent compound” value at hGALK1m [1] is given as ~4 fold. The affinity on hGALK1m [7], expressed as Kd, was 23 nM. Besides, the results for the Papp in “PAMPA permeability” (setting [14]) and in “PAMPA permeability” (setting [15]) were < 10 ×10⁻⁶ cm/s and < 1 ×10⁻⁶ cm/s, respectively. The “Sol.” value in [5] came out at 46.1 µg/mL. The “Metab. Stabil. (m)” value in data set [6] (microsomal half-life) is >30 m. Besides, the half-life (commonly the time needed for the level to fall by half in the phase considered) in data set [6] is < 10 min.
Take `CC1=C(C(=O)Nc2cc(C(=O)O)ccn2)C(c2ccccc2Cl)N=C(Nc2nc3cccc(N)c3o2)N1` (racemic) [Compound 3, 2(2-((7-aminobenzo[d]oxazol-2-yl)amino)-4-(2-chlorophenyl)-6-methyl-1,4-dihydropyrimidine-5-carboxamido)isonicotinic acid]: the IC50 worked out at 220 nM on recombinant human GALK1 (setting [8]); 220 nM on recombinant human GALK1 (setting [9]); 3430 nM on recombinant mouse GALK1 (setting [12]); 3430 nM on recombinant mouse GALK1 (setting [10]); 77 nM against hGALK1m [1] (setting [11]). Besides, on hGALK1m [1] (setting [13]), the Emax was 100%. Also, the “fold improvement of potency (IC50) versus parent compound” value at hGALK1m [1] stood at 13 fold. Also, binding at hGALK1m [7] was characterised by a dissociation constant (Kd) of 12 nM. Also, the values for the apparent permeability coefficient (Papp) in the data set “PAMPA permeability” (setting [14]) and in “PAMPA permeability” (setting [15]) were < 10 ×10⁻⁶ cm/s and < 1 ×10⁻⁶ cm/s, respectively. In addition, the “Sol.” value in [5] was >76 µg/mL. Further, the “Metab. Stabil. (m)” value in [6] (microsomal half-life) is >30 m. The half-life in [6] was < 10 min.
For `CC1=C(C(=O)Nc2cc(C(=O)O)ccn2)C(c2ccc(F)cc2Cl)N=C(Nc2nc3ccc(F)cc3o2)N1` (stereo not drawn) [Compound 45, 2-(4-(2-chloro-4-fluorophenyl)-2-((6-fluorobenzo[d]oxazol-2-yl)amino)-6-methyl-1,4-dihydropyrimidine-5-carboxamido)isonicotinic acid], the IC50 was determined as 860 nM on recombinant human GALK1 (setting [9]), 4320 nM on recombinant mouse GALK1 (setting [12]), 4320 nM on recombinant mouse GALK1 (setting [10]) and 258 nM against hGALK1m [1] (setting [11]). Further, at hGALK1m [1], the “change of potency versus parent compound (in words)” value is recorded as “little effect on the potency”. Moreover, the Emax on hGALK1m [1] (setting [13]) was 100%. Moreover, in “PAMPA permeability”, the “Perm. (1 × 10^−6 cm/sec)” value is recorded as <1 1 × 10^−6 cm/sec. Further, in the data set “PAMPA permeability” (setting [14]), the Papp is < 10 ×10⁻⁶ cm/s. In addition, the “Sol.” value in data set [5] was determined as 40.6 µg/mL. For the same compound, in data set [6] (microsomal half-life), the “Metab. Stabil. (m)” value is >30 m. The half-life in [6] was < 10 min.
In the case of `CC1=C(C(=O)Nc2cc(C(=O)O)ccn2)C(c2ccccc2Cl)N=C(Nc2nc3cccc(OC(F)(F)F)c3o2)N1` (stereo not drawn) [Compound 21, 2-(4-(2-chlorophenyl)-6-methyl-2-((7-(trifluoromethoxy)benzo[d]oxazol-2-yl)amino)-1,4-dihydropyrimidine-5-carboxamido)isonicotinic acid], the “hGALK IC50” value on recombinant human GALK1 (Tables 2-15, 35 μM ATP, 100 μM galactose, 1 h, bracketed figure after some values (e.g. −1.2) is undefined and not reported) is “inactive”. For the same compound, the “hGALK (μM)” value at recombinant human GALK1 (recombinant human GALK1, Kinase-Glo Plus ATP depletion) was “in- active”. In addition, at recombinant mouse GALK1 (Tables 2-15, 35 μM ATP, 100 μM galactose, 1 h, bracketed figure after some values is undefined and not reported), the “mGALK IC50” value was “inactive”. The “mGALK (μM)” value at recombinant mouse GALK1 (recombinant mouse GALK1, Kinase-Glo Plus ATP depletion) is listed as “in- active”. The “change of potency versus parent compound (in words)” value on hGALK1m [1] is on record as “greatly compromised the potencies”. The Emax on hGALK1m [1] (setting [13]) was determined as 88%. At hGALK1m [1] (Tables 18-19 and text of Example 12), the IC50 was > 15000 nM. Besides, in “PAMPA permeability” (setting [14]), the Papp was < 10 ×10⁻⁶ cm/s. For the same compound, the “Sol.” value in [5] came to 47.8 µg/mL. Also, the “Metab. Stabil. (m)” value in [6] (microsomal half-life) is reported as >30 m. Also, in data set [6], the half-life is < 10 min.
`CC1=C(C(=O)Nc2cccc(C(=O)O)c2)C(c2ccccc2Cl)N=C(Nc2nc3ccccc3o2)N1` (stereo not drawn) [Compound 142, 3-(2-(benzo[d]oxazol-2-ylamino)-4-(2-chlorophenyl)-6-methyl-1,4-dihydropyrimidine-5-carboxamido)benzoic acid]: the IC50 was 2430 nM at recombinant human GALK1 (setting [9]); 6110 nM at recombinant mouse GALK1 (setting [12]); 6110 nM on recombinant mouse GALK1 (setting [10]); 3100 nM against hGALK1m [1] (Table 17, amide group optimization, no unit in table). The Emax at hGALK1m [1] (1 h, Table 17, read-out: Efficacy) stood at 96%. Besides, the “Perm. (1 × 10^−6 cm/sec)” value in “PAMPA permeability” (PAMPA) is <1 1 × 10^−6 cm/sec. In addition, in the data set “PAMPA permeability” (setting [14]), the apparent permeability (Papp) was < 10 ×10⁻⁶ cm/s. Further, the “Sol.” value in data set [5] (aqueous kinetic solubility) amounted to 59.1 µg/mL. For the same compound, the “Metab. Stabil. (m)” value in [6] (microsomal stability half-life) is listed as >30 m. The half-life in data set [6] was < 10 min.
